# In paper PMC9043997, “LEAP2 reduces postprandial glucose excursions and ad libitum food intake in healthy men” (Cell Reports Medicine, 2022):
# Where a SMILES comes first, the peptide text is derived from it. Bridges are numbered along the chain shown (N, C = ends).
# Experiments:
# [1] = test system: healthy men; assay: Indirect calorimetry and renal urea excretion; assay type: in vivo, human; settings: iv LEAP2 ~25 pmol/kg/min
# Protocol: Resting energy expenditure and respiratory quotient were measured by indirect calorimetry (Vyntus CPX Canopy; Vyaire Medical, Höchberg, Germany) for 15 min at timepoints −25 (baseline), 45, 120 and 240 min, with the participants awake and in a supine position from 5 min prior to each test. Participants rested in a hospital bed for 30 min before the first test and throughout the experimental day. The gas and flow analyzers were calibrated before each test. The first 5 min and the last minute of data collection were subsequently discarded, and the mean of a 5-min steady state period defined as a coefficient of variation <10% for VO2 and CO2 was used to estimate resting energy expenditure and respiratory quotient for each test. The 5-min steady state period with the lowest resting energy expenditure and with a respiratory quotient between 0.7 and 1.0 was considered. In a few cases without a 5-min steady state period, a 4-min steady state period was considered.[35]^,[36] In the present study, a steady state period of 5 min was successfully reached in […] out of 160 tests. One participant was excluded from the subsequent data analysis due to no steady state period in any of the four tests during an experimental day. A 4-min steady state period was considered in six cases reaching a total of 23 excluded tests from the data analysis.
# To assess the amount of protein breakdown after the liquid mixed meal, urine samples were collected at timepoints 135 and 255 min for measurement of renal urea excretion and total urine production. At timepoint 60 min, 5 min prior to ingestion of the liquid mixed meal, participants were asked to empty their urinary bladder.
# [2] = test system: healthy men; assay: Plasma insulin, C-peptide and C-peptide/glucose ratio during LEAP2 infusion, crossover study; assay type: in vivo, human; settings: mean ± SEM
# Source text: (§1) The infusion was terminated when participants had finished eating.
# (§2) For analysis of plasma glucose, blood was distributed in fluoride heparin-coated tubes, centrifuged immediately for 30 s (12,100 g, room temperature) and measured bedside by the glucose oxidase method (YSI 2900 Biochemistry Analyzer; YSI Incorporated, Yellow Springs, Ohio, USA). For analysis of LEAP2, blood was collected in chilled K3EDTA tubes each containing 250 KIU of aprotinin. For analysis of acyl ghrelin, blood was collected in chilled K2EDTA tubes added 20 μL pefabloc (100 mg/mL; Merck Millipore, Burlington, Massachusetts, USA). Subsequently, pefabloc-treated plasma was acidified with HCl (12.5 μL 2M HCl per 500 μL plasma; Merck Millipore, Burlington, Massachusetts, USA). For analysis of glucagon, blood was collected in K2EDTA tubes. For analysis of GH, insulin, C-peptide, free fatty acids, glycerol, triglycerides and acetaminophen (paracetamol), blood was collected in tubes with lithium and heparin. All tubes were immediately cooled on ice, centrifuged for 15 min (2,000 g, 4°C) and stored at −80°C until analysis. LEAP2 concentrations were determined by an in-house radioimmunoassay directed against the N-terminal part of LEAP2. LEAP-2 was used for standards, and the tracer was a peptide composed of the 12 N-terminal amino acids of LEAP2, with a ^125I-labelled tyrosine added to the C-terminal end. The precision and accuracy of the assay were evaluated based on European Medicines Agency's guidelines for bioanalytical assay validation. […] Due to supply chain disruptions from the COVID-19 pandemic, acyl ghrelin was only measured in plasma samples at timepoints 0, 60, 105, 165 and 255 min. […] Plasma GH was measured by Immunodiagnostic system-iSYS assay (IS-3700; IDS Limited, Boldon, UK). The assay is based on chemiluminesence technology and was performed according to the manufacturer’|'s instructions. […] For analysis of glucagon, plasma was extracted in a final concentration of 70% ethanol. Glucagon was measured using a C-terminal directed antiserum (code number 4305) measuring glucagon of pancreatic origin as previously described.[40] […] Plasma insulin and C-peptide were measured using a two-sided electrochemiluminescence immunoassay (Atellica IM Analyzer; Siemens Healthcare, Ballerup, Denmark). Plasma triglycerides and acetaminophen were analyzed by spectrophotometric methods following enzymatic hydrolysis and oxidation (Siemens Atellica CH 930; Siemens Healthcare, Ballerup, Denmark). Plasma concentrations of free fatty acids and glycerol were determined by enzymatic methods modified to run on a COBAS 6000 automatic analyzer (Roche, Rødovre, Denmark) using a NEFA-HR assay (Wako Chemicals, Neuss, Germany) and glycerol assay (Randox Laboratories, Crumlin, UK), respectively.
# (§3) Unless otherwise stated, results are presented as mean ± SEM. Baseline values were calculated as a mean of timepoints −35, −10 and 0 min or, when only available −10 and 0 min. Baseline values for the postprandial period were calculated as a mean of timepoint 60 min. Calculations of AUC were based on the trapezoidal rule. AUC values are reported for the period 0 to 255 min. To assess the fasting and postprandial periods separately, AUC values are reported for the periods 0 to 60 min and 60 to 255 min, respectively. Student’s paired t test was used to test for differences in baseline, peak, time to peak, AUC and mean values and ad libitum food intake in men.
# [3] = test system: GHSR-null mice; assay: Plasma glucose and food intake after subcutaneous LEAP2 in GHSR-null mice; assay type: in vivo, mouse; settings: female GHSR-null mice n = 8, LEAP2 3 μmol/kg subcutaneous
# Protocol: Food intake and blood glucose measurements were measured in female GHSR-null mice (n = 8) and wild-type littermates (n = 10) (14–24 weeks of age). Mice were double-housed with matching genotype and age. All mice were fasted for four hours and randomized by mean body weight per cage and allocated into either vehicle (saline) or LEAP2 administration on the first day of the study. LEAP2 or vehicle was administered subcutaneously just before start of dark phase (6 PM). By start of dark phase, mice had ad libitum access to water and a normal chow diet. Cumulative food intake was measured one, two and four hours after administration and calculated as the average food intake per cage per g body weight of each mouse, respectively. Blood glucose was measured in blood from a tail puncture at baseline and one, two and four hours after administration by use of a glucometer (Contour ™xt meter; Ascensia Diabetes Care, Basel, Switzerland). One week later, mice underwent the same procedure, but with the opposite treatment. The concentration of the LEAP2 dose was 3 μmol/kg.
# [4] = test system: healthy men; assay: Plasma glucose during LEAP2 infusion with liquid mixed meal test, crossover study; assay type: in vivo, human; settings: mean ± SEM
# Source text: as §1, §2, §3
# [5] = healthy men n = 20, LEAP2 day, before infusion
# [6] = healthy men n = 20, iv LEAP2 ~25 pmol/kg/min, 0 to 255 min
# [7] = healthy men n = 20, iv LEAP2 ~25 pmol/kg/min, fasting period
# [8] = healthy men n = 20, iv LEAP2 ~25 pmol/kg/min, liquid mixed meal at 65 min
# [9] = healthy men n = 20, iv LEAP2 ~25 pmol/kg/min, postprandial period
# [10] = healthy men n = 20, iv LEAP2 ~25 pmol/kg/min, time = 60 min
compound,measurement,setting,value
"CC[C@H](C)[C@@H]1NC(=O)[C@@H]2CSSC[C@@H](C(=O)N[C@@H](CO)C(=O)N[C@@H](CC(C)C)C(=O)N[C@@H](CO)C(=O)N[C@H](C(=O)N[C@@H](C)C(=O)N[C@@H](CCC(N)=O)C(=O)N[C@@H](CCC(=O)O)C(=O)O)C(C)C)NC(=O)[C@H](CCCNC(=N)N)NC(=O)[C@H](CCCNC(=N)N)NC(=O)[C@H](CCCCN)NC(=O)[C@H](CCCNC(=N)N)NC(=O)[C@H](CSSC[C@H](NC(=O)[C@H](CO)NC(=O)[C@H](C)NC(=O)CNC(=O)[C@@H](NC(=O)[C@@H]3CCCN3C(=O)[C@H](CCCNC(=N)N)NC(=O)[C@H](CC(C)C)NC(=O)[C@H](CO)NC(=O)[C@@H](NC(=O)CNC(=O)[C@H](CCCNC(=N)N)NC(=O)[C@H](Cc3c[nH]c4ccccc34)NC(=O)[C@H](Cc3ccccc3)NC(=O)[C@@H]3CCCN3C(=O)[C@@H](NC(=O)[C@@H](N)CCSC)[C@@H](C)O)C(C)C)[C@@H](C)CC)C(=O)N[C@@H](CCCNC(=N)N)C(=O)N[C@@H](CC(=O)O)C(=O)N[C@@H](CC(=O)O)C(=O)N[C@@H](CO)C(=O)N[C@@H](CCC(=O)O)C(=O)N2)NC(=O)[C@H](CC(C)C)NC(=O)[C@H](CCCNC(=N)N)NC(=O)[C@H]([C@@H](C)O)NC1=O [LEAP2, liver-expressed antimicrobial peptide 2] (H-MTPFWRGVSLRPIGASCRDDSECITRLCRKRRCSLSVAQE-OH; disulfide 17-28, 23-33 (inferred); N-terminus and C-terminus assumed)","resting energy expenditure, LEAP2 vs placebo",[1]; indirect calorimetry,no differences
same,"respiratory quotient, LEAP2 vs placebo","[1]; indirect calorimetry, data not shown",no differences
same,"renal urea excretion, LEAP2 vs placebo","[1]; two consecutive time points (135 and 255 min) or total, data not shown",no difference
same,C-peptide Baseline,[2]; [5],360 ± 21.4 pmol/L
same,Insulin Baseline,[2]; [5],36.4 ± 1.70 pmol/L
same,C-peptide AUC,[2]; [6],218 ± 11.7 nmol·min/L
same,Insulin AUC,[2]; [6],33.8 ± 2.63 nmol·min/L
same,C-peptide AUC0–60 min,[2]; [7],22.5 ± 1.18 nmol·min/L
same,Insulin AUC0–60 min,[2]; [7],2.39 ± 0.09 nmol·min/L
same,C-peptide Peak,[2]; [8],"1,524 ± 106 pmol/L"
same,C-peptide Time to peak,[2]; [8],136 ± 9.01 min
same,Insulin Peak,[2]; [8],347 ± 38.6 pmol/L
same,Insulin Time to peak,[2]; [8],110 ± 6.28 min
same,C-peptide AUC60–255 min,[2]; [9],196 ± 11.2 nmol·min/L
same,Insulin AUC60–255 min,[2]; [9],31.5 ± 2.60 nmol·min/L
same,C-peptide Postprandial baseline,[2]; [10],365 ± 20.2 pmol/L
same,Insulin Postprandial baseline,[2]; [10],38.6 ± 2.09 pmol/L
same,cumulative food intake after dosing vs vehicle,[3],no effect
same,plasma glucose after dosing vs vehicle,[3],did not affect plasma glucose
same,Glucose Baseline,"[4]; healthy men n = 20, LEAP2 day, before infusion (mean of -35, -10, 0 min)",5.02 ± 0.06 mmol/L
same,Glucose AUC,"[4]; healthy men n = 20, iv LEAP2 ~25 pmol/kg/min, 0 to 255 min, trapezoidal","1,288 ± 13.4 mmol/L × min"
same,Glucose Postprandial end,"[4]; healthy men n = 20, iv LEAP2 ~25 pmol/kg/min, after liquid mixed meal",4.48 ± 0.11 mmol/L
same,plasma glucose AUC 0–60 min,[4]; [7],295 ± 3.02 mmol/L/min
same,Glucose Peak,[4]; [8],6.21 ± 0.12 mmol/L
same,Glucose Time to peak,[4]; [8],140 ± 12.7 min
same,Glucose AUC60–255 min,"[4]; healthy men n = 20, iv LEAP2 ~25 pmol/kg/min, postprandial period after liquid mixed meal",992 ± 12.4 mmol·min/L
same,Glucose Postprandial baseline,[4]; [10],4.96 ± 0.05 mmol/L
